Measured values taken from patent US20240208997A1, “CYCLIC BENZIMIDAZOLE DERIVATIVES AS CGAS INHIBITORS” (Boehringer Ingelheim International GmbH, priority 2022, published 2024).

test system: IFN induction in dsDNA-stimulated human whole blood; assay: Human whole blood assay (hWB IC50), dsDNA stimulated, IFNα2α production; assay type: cell-based; details: Table 1
Description: 6.3 Method: Human Whole Blood Assay (Human WB IC50)
For the detection of cellular cGAS activity human whole blood was stimulated by transfection with double stranded DNA. Pathway activity was monitored by measuring the IFNα2α production.
Compounds were delivered as 10 mM DMSO solution and serially diluted and transferred to the 96-well cell culture plate (Corning #3595), prefilled with 20 μl OptiMEM (Gibco, #11058-021) in each well, using an Echo acoustic dispenser. Typically, 8 concentrations were used with the highest concentration at 10 μM in the final assay volume followed by ^˜1:5 dilution steps. DMSO concentration was set to 0.1% in the final assay volume. The 96-well assay plate contained 10 test compounds, and DMSO in control wells.
Collection of human whole blood from 3 or more healthy donors (male or female, no medication for 7 days except contraceptive and thyroxine) as Na-Citrate blood (e.g. 3.8% in Monovettes from Sarstedt) was conducted in parallel. Whole blood was kept at room temperature for a maximum of 3 hours after collection until use in the assay. 160 μl of the whole blood samples was transferred to each well of the 96-well assay plates filled with compound/OptiMEM. All assay plates were prepared as duplicates with blood from different donors. Blood plates were kept at room temperature for 60 minutes and continuous shaking with 450 rpm, covered with the lid, but not sealed.
20 μl OptiMEM and 9.6:1 Fugene was added to all low control wells.
After covering assay plates with aera seals and the lid, blood plates were kept at room temperature for 30 minutes and continuous shaking with 450 rpm, followed by an overnight incubation of 22 h at 37° C. in the incubator, without shaking.
For the detection of IFNα-2α in human plasma, the biotinylated capture antibody (Antibody set IFNA2, Meso Scale Diagnostics #B21VH-3, including coating and capture antibody) was diluted 1:17.5 in Diluent 100 (Meso Scale Diagnostics #R50AA-4), according to the manufacturer's directions. U-Plex MSD GOLD 96-well Small Spot Strepavidin SECTOR Plates (Meso Scale Diagnostics #L45SA-5) were coated with 25 μl diluted capture antibody. Coated plates were incubated for 60 min at room temperature under continuous shaking at 700 rpm. MSD IFNα-2α plates were washed three times with 150 μl wash buffer (1× HBSS, 0.05% Tween).
After blocking the plates with 100 μl block solution/well (1× HBSS with 0.2% Tween, 2% BSA) for 60 min at room temperature and continuous shaking at 700 rpm, plates were emptied as dry as possible by dumping just before continuing with the human plasma.
Whole Blood assay plates were centrifuged at 1600 rpm for 10 minutes. 25 μl of supernatant was transferred with a pipetting robot from each whole blood plate to the corresponding IFNα-2α plate. Plates were sealed with microplate seals and kept at room temperature again under continuous shaking at 700 rpm for two hours.
Next MSD IFNα-2α plates were washed three times with 150 μl wash buffer (1× HBSS, 0.05% Tween), before adding 25 μl MSD SULFO-TAG IFNα-2α Antibody solution (1:100 diluted in Diluent 3 (Meso Scale Diagnostics #R50AP-2) to each well of the plates.
Afterwards plates were sealed with microplate seals and kept at room temperature again under continuous shaking at 700 rpm for two hours. Finally, MSD IFNα-2α plates were washed three times with 150 μl wash buffer (1× HBSS, 0.05% Tween). 150 μl 2× Read buffer was added to each well and plates were immediately measured with the MSD Sector S600 Reader using the vendor barcode.
Data Evaluation and Calculation:
For data evaluation and calculation, % control calculation of each well was based on the mean of high (DNA stimulated control) and mean of low (unstimulated control) controls by using the following formula:
[counts(sample)−counts(low))/(counts(high)−counts(low))]*100
The IC50-values were calculated using the standard 4 parameter logistic regression formula. […]

Q: Which IC50 does the source give for `C[C@H]1CN2CC[C@@H]1n1c(nc3ccccc31)O[C@H]1C[C@@H](C(=O)O)N(C1)c1nc(nc3c1oc1ccccc13)CCCCCOC2=O` [Example 10.02] here?
A: 83 nM

Q: `O=C(O)[C@@H]1C[C@H]2CN1c1nc(nc3c1oc1ccccc13)OCCCCOC(=O)N1CCC(CC1)n1c(nc3ccccc31)O2` [Example 11.01] was tested. Which IC50 did it give?
A: 138 nM

Q: With `C[C@H]1CN2CC[C@@H]1n1c(nc3ccccc31)O[C@H]1C[C@@H](C(=O)O)N(C1)c1nc(nc3c1oc1ccccc13)CCCCCN(C)C2=O` [Example 13.01] as the compound, how does the IC50 read?
A: 186 nM
